Assay results reported in ChEMBL document CHEMBL1155510, “Scaffold rearrangement of dihydroxypyrimidine inhibitors of HIV integrase: Docking model revisited” (Bioorg Med Chem Lett, 2010).

Legend:
[1] = Inhibition of HIV integrase 3'-end processing reaction; design: species or system Human immunodeficiency virus
[2] = Inhibition of HIV integrase strand transfer activity; design: species or system Human immunodeficiency virus

SMILES	IC50 [1]	IC50 [2]
CNC(=O)c1nc(Cc2ccc(F)cc2)[nH]c(=O)c1O	> 333 µM	169 µM
CNC(=O)c1nc(C)n(Cc2ccc(F)cc2)c(=O)c1O	> 333 µM	111 µM
CN(C)CCCNC(=O)c1nc(Cc2ccc(F)cc2)[nH]c(=O)c1O	> 333 µM	> 333 µM
O=C(O)c1nc(Cc2ccc(F)cc2)[nH]c(=O)c1O	> 333 µM	243 µM
CNC(=O)c1nc(Cc2ccc(F)cc2)n(C)c(=O)c1O	> 333 µM	241 µM
COCCNC(=O)c1nc(Cc2ccc(F)cc2)[nH]c(=O)c1O	> 333 µM	206 µM
